The target in one assay is Bcl-2 protein (Homo sapiens (Human), UniProt P10415). Put plainly: Inhibition of Bcl-2 by the fluorescence polarisation technique. The class given is binding. The following applies: fluorescence polarisation test; concentration that inhibits fluorescence polarisation by 50%; read-out: IC50 (nM) Bcl-2 FP. The procedure:
The fluorescence polarisation tests were carried out on microplates (384 wells). […] After incubation for 2 hours, the fluorescence polarisation is measured.

The test system of assay [1] is RS4;11 leukaemia tumour line. Nature of the assay: In vitro cytotoxicity (Microculture Tetrazolium Assay, 48 hours). The class given is cell-based. The conditions noted are these: Homo sapiens, RS4;11 cells, 48 hours exposure, MTT, concentration that inhibits cell viability by 50%, read-out: IC50 (nM) MTT RS4. The procedure:
The cytotoxicity studies were carried out on the RS4;11 leukaemia tumour line.
The cells are distributed onto microplates and exposed to the test compounds for 48 hours.

Where a name gives a salt, the structure may show the parent alone.

Sequence of Bcl-2 protein (P10415 whole entry): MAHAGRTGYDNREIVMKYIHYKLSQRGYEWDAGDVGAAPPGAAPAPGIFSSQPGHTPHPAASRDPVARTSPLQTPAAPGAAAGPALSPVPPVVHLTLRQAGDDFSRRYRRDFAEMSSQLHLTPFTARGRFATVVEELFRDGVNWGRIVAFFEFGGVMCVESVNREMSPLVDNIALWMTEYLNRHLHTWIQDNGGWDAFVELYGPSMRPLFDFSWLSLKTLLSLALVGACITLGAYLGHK

For `CN1CCN(C[C@@H]2Cc3ccccc3CN2C(=O)c2ccc(Cl)cc2-c2cc(C(=O)N(c3ccc(O)cc3)c3ccc4c(ccn4C)c3)c3n2CCCC3)CC1=O` [Example 107, 3-(5-Chloro-2-{[(3S)-3-[(4-methyl-3-oxopiperazin-1-yl)methyl]-3,4-dihydroisoquinolin-2(1H)-yl]carbonyl}phenyl)-N-(4-hydroxyphenyl)-N-(1-methyl-1H-indol-5-yl)-5,6,7,8-tetrahydroindolizine-1-carboxamide hydrochloride], the IC50 at Bcl-2 protein is 7 nM; in assay [1] it was 8.29 nM.

Take `COCCN(C)C[C@@H]1Cc2ccccc2CN1C(=O)c1ccc(Cl)cc1-c1cc(C(=O)N(c2ccc(O)cc2)c2ccc3c(ccn3C)c2)c2n1CCCC2` [Example 108, 3-(5-Chloro-2-{[(3S)-3-{[(2-methoxyethyl)(methyl)amino]methyl}-3,4-dihydroisoquinolin-2(1H)-yl]carbonyl}phenyl)-N-(4-hydroxyphenyl)-N-(1-methyl-1H-indol-5-yl)-5,6,7,8-tetrahydroindolizine-1-carboxamide hydrochloride]: the values for the IC50 (on Bcl-2 protein; in assay [1]) were 9 nM and 36.4 nM, respectively.

Regarding `O=C(c1cc(-c2cc3c(cc2C(=O)N2Cc4ccccc4C[C@H]2C[N+]2([O-])CCOCC2)OCO3)n2c1CCCC2)N(c1ccccc1)c1ccc(O)cc1` [Example 109, N-(4-Hydroxyphenyl)-3-(6-{[(3S)-3-[(4-oxidomorpholin-4-yl)methyl]-3,4-dihydroisoquinolin-2(1H)-yl]carbonyl}-1,3-benzodioxol-5-yl)-N-phenyl-5,6,7,8-tetrahydroindolizine-1-carboxamide], the IC50 on Bcl-2 protein was 30 nM; in assay [1], 483 nM.

As to `CCN(CCOC)C[C@@H]1Cc2ccccc2CN1C(=O)c1ccc(Cl)cc1-c1cc(C(=O)N(c2ccc(O)cc2)c2ccc3c(ccn3C)c2)c2n1CCCC2` [Example 110, 3-(5-Chloro-2-{[(3S)-3-{[ethyl(2-methoxyethyl)amino]methyl}-3,4-dihydroisoquinolin-2(1H)-yl]carbonyl}phenyl)-N-(4-hydroxyphenyl)-N-(1-methyl-1H-indol-5-yl)-5,6,7,8-tetrahydroindolizine-1-carboxamide hydrochloride], the IC50 at Bcl-2 protein stood at 29 nM; in assay [1] it was 129 nM.

As for `O=C(c1cc(-c2cc(Cl)ccc2C(=O)N2Cc3ccccc3C[C@H]2CN2CCOCC2)n2c1CCCC2)N(c1ccc(O)cc1)c1ccc(F)cc1` [Example 111, 3-(5-Chloro-2-{[(3S)-3-(morpholin-4-ylmethyl)-3,4-dihydroisoquinolin-2(1H)-yl]carbonyl}phenyl)-N-(4-fluorophenyl)-N-(4-hydroxyphenyl)-5,6,7,8-tetrahydroindolizine-1-carboxamide hydrochloride], the IC50 at Bcl-2 protein was 15 nM; in assay [1], 81.5 nM.

As to `COc1ccc(C(=O)N2Cc3ccccc3C[C@H]2CN2CCOCC2)c(-c2cc(C(=O)N(c3ccccc3)c3ccc(O)cc3)c3n2CCCC3)c1` [Example 112, N-(4-Hydroxyphenyl)-3-(5-methoxy-2-{[(3S)-3-(morpholin-4-ylmethyl)-3,4-dihydroisoquinolin-2(1H)-yl]carbonyl}phenyl)-N-phenyl-5,6,7,8-tetrahydroindolizine-1-carboxamide hydrochloride], the IC50 on Bcl-2 protein worked out at 9 nM; in assay [1] it was 139 nM.

For the molecule `O=C(c1cc(-c2cc3c(cc2C(=O)N2Cc4ccccc4C[C@H]2CN2CCOCC2)OCO3)n2c1CC(O)CC2)N(c1ccccc1)c1ccc(O)cc1` (stereo partly drawn) [Example 113, 7-Hydroxy-N-(4-hydroxyphenyl)-3-(6-{[(3S)-3-(morpholin-4-ylmethyl)-3,4-dihydroisoquinolin-2(1H)-yl]carbonyl}-1,3-benzodioxol-5-yl)-N-phenyl-5,6,7,8-tetrahydroindolizine-1-carboxamide hydrochloride], the IC50 on Bcl-2 protein stood at 16 nM; in assay [1] it was 190 nM.

In the case of `COc1ccc(C(=O)N2Cc3ccccc3C[C@H]2CN2CCOCC2)c(-c2cc(C(=O)N(c3ccc(O)cc3)c3ccc(C)c(F)c3)c3n2CCCC3)c1` [Example 114, N-(3-Fluoro-4-methylphenyl)-N-(4-hydroxyphenyl)-3-(5-methoxy-2-{[(3S)-3-(morpholin-4-ylmethyl)-3,4-dihydroisoquinolin-2(1H)-yl]carbonyl}phenyl)-5,6,7,8-tetrahydroindolizine-1-carboxamide hydrochloride], the IC50 on Bcl-2 protein came to 9 nM; in assay [1] it was 43.1 nM.

Turning to `O=C(c1cc(-c2cc(Cl)ccc2C(=O)N2Cc3ccccc3C[C@H]2CN2CCOCC2)n2c1CCCC2)N(c1ccc(O)cc1)c1ccccc1F` [Example 115, 3-(5-Chloro-2-{[(3S)-3-(morpholin-4-ylmethyl)-3,4-dihydroisoquinolin-2(1H)-yl]carbonyl}phenyl)-N-(2-fluorophenyl)-N-(4-hydroxyphenyl)-5,6,7,8-tetrahydroindolizine-1-carboxamide hydrochloride], the IC50 is 8 nM on Bcl-2 protein and 58.1 nM in assay [1].

In the case of `O=C(c1cc(-c2cc(Cl)ccc2C(=O)N2Cc3ccccc3C[C@H]2CN2CCOCC2)n2c1CCCC2)N(c1ccc(O)cc1)c1cccc(F)c1` [Example 116, 3-(5-Chloro-2-{[(3S)-3-(morpholin-4-ylmethyl)-3,4-dihydroisoquinolin-2(1H)-yl]carbonyl}phenyl)-N-(3-fluorophenyl)-N-(4-hydroxyphenyl)-5,6,7,8-tetrahydroindolizine-1-carboxamide hydrochloride], the IC50 on Bcl-2 protein turned out to be 10 nM; in assay [1] it was 43.6 nM.

For `O=C(c1cc(-c2cc(Cl)ccc2C(=O)N2Cc3ccccc3C[C@H]2CN2CCOCC2)n2c1CCCC2)N(c1ccc(O)cc1)c1ccc(F)cc1F` [Example 117, 3-(5-Chloro-2-{[(3S)-3-(morpholin-4-ylmethyl)-3,4-dihydroisoquinolin-2(1H)-yl]carbonyl}phenyl)-N-(2,4-difluorophenyl)-N-(4-hydroxyphenyl)-5,6,7,8-tetrahydroindolizine-1-carboxamide hydrochloride], the IC50 on Bcl-2 protein worked out at 15 nM; in assay [1] it was 194 nM.

For the molecule `O=C(c1cc(-c2cc(Cl)ccc2C(=O)N2Cc3ccccc3C[C@H]2CN2CCOCC2)n2c1CCCC2)N(c1ccc(O)cc1)c1ccc(F)c(F)c1` [Example 118, 3-(5-Chloro-2-{[(3S)-3-(morpholin-4-ylmethyl)-3,4-dihydroisoquinolin-2(1H)-yl]carbonyl}phenyl)-N-(3,4-difluorophenyl)-N-(4-hydroxyphenyl)-5,6,7,8-tetrahydroindolizine-1-carboxamide hydrochloride], the IC50 at Bcl-2 protein came out at 15 nM; in assay [1] it was 71 nM.

With `N#Cc1cccc(N(C(=O)c2cc(-c3cc(Cl)ccc3C(=O)N3Cc4ccccc4C[C@H]3CN3CCOCC3)n3c2CCCC3)c2ccc(O)cc2)c1` [Example 119, 3-(5-Chloro-2-{[(3S)-3-(morpholin-4-ylmethyl)-3,4-dihydroisoquinolin-2(1H)-yl]carbonyl}phenyl)-N-(3-cyanophenyl)-N-(4-hydroxyphenyl)-5,6,7,8-tetrahydroindolizine-1-carboxamide hydrochloride], the results for the IC50 (at Bcl-2 protein; in assay [1]) were 9 nM and 31.6 nM, respectively.

By IC50 is commonly meant the concentration needed to halve the response being measured.

The record behind these values is US9120791B2, “Indolizine compounds, a process for their preparation and pharmaceutical compositions containing them” (LES LABORATOIRES SERVIER, priority 2012, dated 2015).
